Where “and” joins values, the source holds several entries; their conditions need not be identical. Equal values may be shown once. Entries after “also recorded” stand apart in the source; their conditions may differ.
Tests used:
[1] = phase solubility studies of β-lap with cyclodextrins; assay type: physicochemical
Method: Solubility studies were performed by adding excess amount of β-lap to a series of PBS buffer that contain different concentrations of each CD molecule ranging from zero to its solubility limit (see Table 1 for the solubility limit of each CD molecule). A schematic diagram of the intermolecular interactions and their effect on solubility is provided as FIG. 1. The suspensions were stirred at 25° C. until dissolution equilibrium was reached. […] Phase solubility diagram for each CD was obtained by plotting the β-lap solubility at dissolution equilibrium as a function of the CD concentration.

[2] = system: C57Blk/6 mice; test: animal toxicity study (morbidity and mortality); assay type: in vivo, mouse; details: HPβ-CD inclusion complex vs Cremophor vehicle, from LD50
Method: C57Blk/6 female mice (3-4 week-old, 18-20 g) (Jackson Labs, Me.) were used to study the morbidity and mortality of mice treated with HPβ-CD.β-lap inclusion complex. Four mice per group were used for each dose, which varied from 20 to 100 mg/kg. […] Mice were injected (i.p.) every Monday, Wednesday and Friday for three weeks for a total of 10 injections. Control animals (4 mice/group) were injected with 5000 mg/kg of HPβ-CD alone to evaluate its toxicity. This HPβ-CD dose is approximately ten times of the HPβ-CD amount introduced at the highest dose of β-lap (100 mg/kg) via the HPβ-CD.β-lap inclusion complex. The higher dose of HPβ-CD was used to ensure the lack of toxicity of this compound. Weight and lethality were measured on a daily basis following initial drug administration. All animals were maintained in a facility accredited by the Association for Assessment and Accreditation of Laboratory Animal Care according to the “Principles of Laboratory Animal Care” of the National Institutes of Health.

[3] = system: MDA-MB-468 NQO1+ human breast cancer xenografts; test: antitumor activity against xenografts; assay type: in vivo, athymic nude mice; details: for antitumor activity: 55-70 mg/kg i.p. every other day
Method: Athymic nude mice bearing […] tumors were treated with the indicated mg/mk doses of β-lap i.p. every other day, beginning at day 26.
When tumor volumes reached 20-30 mm^3 (at day 26), mice were then treated (by intraperitoneal injection) every other day with the indicated doses (in mg/kg) of β-lap (55-70 mg/kg were tested). […] Multiple cycles of treatments are now being tested, as are various dose regimen and scheduling protocols.

[4] = system: A549 NSCLC cells; test: survival and apoptosis (PARP cleavage) of NSCLC cells; assay type: cell-based, human; details: 8 μM β-lap, 4 h
From the text: NQO1-dependent apoptosis of A549 or CC-10 NSCLC cells by β-lap.

[5] = system: CC-10 tumor cell lines; test: lethality and apoptosis of NSCLC cells; assay type: cell-based, mouse
From the text: PARP cleavage to a 60 kDa fragment and specific p53 proteolysis are diagnostic for β-lap-induced μ-calpain-mediated apoptosis.

[6] = solubility of β-lap in PBS (orbital shaker, UV-Vis); assay type: physicochemical; details: 37° C.
Method: Fabrication of β-lap-loaded polymer millirods. The extremely low solubility of β-lap in water has greatly limited the clinical use of this compound. The development of drug-impregnated millirods, wherein β-lap release kinetics may be accurately permits the delivery of an efficacious form of therapy against human prostate tumors that commonly over-express the NQO1 oxidoreductase. The extinction coefficient for β-lap in water was determined to be 2.6×10^4 cm^−1M^−1 at 257 nm wavelength by UV-V is spectrophotometry. Solubility experiments were performed by immersing β-lap in PBS over a period of six days in an orbital shaker at 37° C. At the start of the experiment the drug suspension was sonicated for 20 seconds to facilitate the fast reach of solubility equilibrium. Samples were taken and filtered by 0.2 μm Millipore filters via syringe to remove non-dissolved drug particles and diluted to accommodate the UV-V is sensitive range before collecting absorbance data. […] This concentration is too low for i.v. administration in clinical applications. […] Polymer millirods were fabricated using a compression heat molding procedure as previously developed in our lab. (Halpert, B., Sheehan, E. and Schmalhorst, W. (1998) Cancer 82, 737-742.) Briefly, β-lap particles were mixed with polymer microspheres (4 μm) and various concentrations of glucose. […]

[7] = β-lap release from polymer millirods in PBS; assay type: physicochemical; details: fabrication and controlled release
[8] = system: LNCaP; test: TUNEL apoptosis assay; assay type: cell-based, human; details: for Apoptosis (%) After Drug Treatment: 10 μM, 4h
[9] = system: DU-145; test: TUNEL apoptosis assay; assay type: cell-based, human; details: 10 μM, 4h, TUNEL 48h
[10] = system: PC-3; test: TUNEL apoptosis assay; assay type: cell-based, human; details: 10 μM, 4h, TUNEL 48h
[11] = system: DU-145 cells; test: survival / lethality of CaP cells; assay type: cell-based, human
[12] = system: LNCaP cells; test: survival / lethality of CaP cells; assay type: cell-based, human; details: LNCaP (lack NQO1)
[13] = system: LNCaP vector alone clones; test: apoptosis in transfected LNCaP clones; assay type: cell-based, human; details: 10 μM β-lap
From the text: (§1) LNCaP cells were transfected with either pcDNA3 empty vector or pcDNA3 containing full-length NQO1 cDNA.

[14] = system: NQO1-expressing LNCaP clone (LN-NQ Cl 1-4, 10); test: apoptosis in transfected LNCaP clones; assay type: cell-based, human; details: 10 μM β-lap
From the text: as §1

[15] = system: NQO1-containing LNCaP clones; test: colony forming ability assays; assay type: cell-based, human; details: 4-h pulses
Method: FIG. 14. […] Colony forming ability assays (CFAs) were performed three times, each in triplicate.
as §1

[16] = system: human cancer cells; details: variety of human cancer cells; read-out: antitumor activity (IC50); cited from earlier work
[17] = system: normal fresh or proliferating human PBMC; details: cited from earlier work

CC1(C)CCC2=C(O1)c1ccccc1C(=O)C2=O [β-lap, β-Lapachone]
increase of β-lap solubility in HPβ-CD over that in β-CD vehicle [1]: 24 fold
maximal solubility of β-lap in HPβ-CD solution ([1]; HPβ-CD solution, PBS, 25° C.): 66.0 mM and 16.0 mg/ml
water solubility of β-lap ([1]; water): 0.16 mM and 0.04 mg/ml
maximal solubility of β-lap in β-CD solution ([1]; β-CD solution, PBS, 25° C.): 2.8 mM and 0.68 mg/ml
greater bioavailability in vivo compared to previous studies [2]: ~3 fold
antitumor activity [3]: significant antitumor responses; also recorded: Significant antitumor activity
antitumor activity ([3]; listed as β-Lap): significant antitumor activity
antitumor responses ([3]; 65 and 70 mg/kg i.p. every other day, 10 doses): Significant antitumor responses
lethality and apoptosis [4]: caused lethality and apoptosis
lethality and apoptosis [5]: caused lethality and apoptosis
sensitivity to β-lap ([5]; 4 μM, 4 h): extremely sensitive
solubility of β-lap in PBS buffer [6]: 2.6×10^−4 M and 0.05 mg/cc
structural integrity of released β-lap (UV-Vis spectra) [7]: maintained; also recorded: maintains its structural integrity
Apoptosis (%) After Drug Treatment ([8]; LNCaP + DC (50 μM dicoumarol), TUNEL 48h): 28%
Apoptosis (%) After Drug Treatment ([8]; LNCaP + DVED, TUNEL 48h): 24%
Apoptosis (%) After Drug Treatment ([8]; LNCaP, TUNEL 48h post-treatment): 28%
less apoptosis than DU-145 or PC-3 cells ([8]; β-lap-treated LNCaP): 3 fold
Apoptosis (%) After Drug Treatment ([9]; DU-145 + DC (50 μM dicoumarol)): 0.12%
Apoptosis (%) After Drug Treatment ([9]; DU-145 + DVED): 76%
Apoptosis (%) After Drug Treatment ([9]; DU-145): 71%
Apoptosis (%) After Drug Treatment ([10]; PC-3 + DC (50 μM dicoumarol)): 0.04%
Apoptosis (%) After Drug Treatment ([10]; PC-3 + DVED): 91%
Apoptosis (%) After Drug Treatment ([10]; PC-3): 82%
lethality ([11]; DU-145, 4 μM β-lap): > 95%
survival ([11]; DU-145, 4 μM β-lap with 50 μM dicoumarol): > 95%
sensitivity to β-lap ([11]; DU-145, absence of IR): sensitive
sensitivity to β-lap [12]: resistant
apoptosis [13]: < 5%
apoptosis [14]: 80-90%
sensitivity compared to NQO1-deficient LN-pcDNA3 vector alone cells [15]: significantly more sensitive
IC50 [16]: 1 to 10 µM
cytotoxic effects [17]: No cytotoxic effects

Source: US6890950B2, “Lapachone delivery systems, compositions and uses related thereto” (priority 2002, dated 2005)
